Experimental data: patent US20210113501A1, “METHOD OF ADMINISTERING BETA-HYDROXY-BETA-METHYLBUTYRATE (HMB)” (Metabolic Technologies, Inc., priority 2009, published 2021)
Marks after values point to notes of the source that are not given here.

Experiment: Study 1 hematology (complete blood count)
Format: in vivo, human
Conditions: for Basophils (absolute) % Change / Basophils, % - % Change / Eosinophils (absolute) % Change / Eosinophils, % - % Change / Hematocrit % Change / Hemoglobin % Change / Lymphocytes (absolute) % Change / Lymphocytes, % - % Change / MCH % Change / MCHC % Change / MCV % Change / Monocytes (absolute) % Change / Monocytes, % - % Change / Neutrophils (absolute) % Change / Neutrophils, % - % Change / Platelets % Change / RBC % Change / RDW % Change / WBC % Change: Before to After
Procedure: Study 1 design. For study 1 the subjects reported to the laboratory in the morning following an overnight fast. Before ingestion of one of the supplemental treatments, a flexible sterile polyethylene catheter was inserted into a forearm vein using sterile procedures and a pre-ingestion blood sample was drawn. Subsequent blood samples were taken at 0, 2, 5, 10, 15, 25, 35, 45, 60, 90, 120 and 180 min after ingestion of the treatment. Plasma was separated and samples were stored frozen at −70° C. for analysis of HMB concentration. In addition, a portion of the pre-ingestion and 180 minute blood samples were used for measurements (LabCorp, Kansas City, Mo.) of glucose, uric acid, blood urea nitrogen (BUN), creatinine, sodium, potassium, chloride, carbon dioxide, phosphorous, protein, albumin, globulin, albumin:globulin ratio, total bilirubin, direct bilirubin, alkaline phosphatase, lactate dehydrogenase, aspartate aminotransferase (AST), alanine aminotransferase (ALT), gamma-glutamyl transpeptidase (GGT), iron binding capacity (TIBC), unsaturated iron binding capacity (UIBC), iron, iron saturation, total cholesterol, triglycerides, high density lipoprotein (HDL), low density lipoprotein (LDL), and cholesterol ratio. A complete blood count (CBC) was also performed before and after the 180 min treatment period. Subjects also completed a brief questionnaire to report any physical symptoms (such as nausea, headache, etc) they may have experienced during the experiment.
The data were analyzed using a crossover design with Proc GLM in SAS. (45) For the timed sampling of plasma HMB a repeated measures polynomial model was used. The model included subject, order, and treatment main effects and time by treatment interaction where appropriate. For other parameters Proc GLM was also used with subject, order, and treatment main effects and the p values are reported for the treatment main effect. Statistical significance was determined for p<0.05 and a trend was determined for 0.05<p<0.10.

For CC(C)(O)CC(=O)[O-].CC(C)(O)CC(=O)[O-].[Ca+2] [CaHMB, calcium β-hydroxy-β-methylbutryate, reference compound], the “Basophils (absolute)” value (After (180 min)) was 0.04 ± 0.0 ×10^3/μL, the “Basophils, %” value (After (180 min)) was 0.4 ± 0.2% and the “Eosinophils (absolute)” value (After (180 min)) was 0.1 ± 0.04 ×10^3/μL. For the same compound, the “Eosinophils, %” value (After (180 min)) was 2.1 ± 0.6%, the Hematocrit (After (180 min)) was 38.7 ± 1.3% and the Hemoglobin (After (180 min)) was 13.4 ± 0.5 g/dL. The “Lymphocytes (absolute)” value (After (180 min)) was 2.1 ± 0.2 ×10^3/μL, the “Lymphocytes, %” value (After (180 min)) was 34.0 ± 3.4% and the MCH (After (180 min)) was 31.3 ± 0.6 pg. For the same compound, the MCHC (After (180 min)) was 34.7 ± 0.2 g/dL, the MCV (After (180 min)) was 90.4 ± 1.5 fL and the “Monocytes (absolute)” value (After (180 min)) was 0.5 ± 0.1 ×10^3/μL. The “Monocytes, %” value (After (180 min)) was 7.4 ± 0.7%, the “Neutrophils (absolute)” value (After (180 min)) was 3.8 ± 0.7 ×10^3/μL and the “Neutrophils, %” value (After (180 min)) was 56.1 ± 3.8%. The Platelets (After (180 min)) was 202.9 ± 16^ ×10^3/μL, the RBC (After (180 min)) was 4.3 ± 0.2 ×10^6/µL and the RDW (After (180 min)) was 13.1 ± 0.2%. For the same compound, the WBC (After (180 min)) was 6.4 ± 0.7 ×10^3/μL, the “Basophils (absolute)” value (Before) was 0.05 ± 0.0 ×10^3/μL and the “Basophils, %” value (Before) was 0.5 ± 0.2%. The “Eosinophils (absolute)” value (Before) was 0.2 ± 0.04 ×10^3/μL, the “Eosinophils, %” value (Before) was 2.5 ± 0.4% and the Hematocrit (Before) was 38.3 ± 1.1%. For the same compound, the Hemoglobin (Before) was 13.3 ± 0.4 g/dL, the “Lymphocytes (absolute)” value (Before) was 2.5 ± 0.1 ×10^3/μL and the “Lymphocytes, %” value (Before) was 39.6 ± 2.8%. It also gave an MCH (Before) of 31.2 ± 0.6 pg, an MCHC (Before) of 34.7 ± 0.1 g/dL and an MCV (Before) of 90.0 ± 1.5 fL. For the same compound, the “Monocytes (absolute)” value (Before) was 0.5 ± 0.1 ×10^3/μL, the “Monocytes, %” value (Before) was 7.1 ± 0.9% and the “Neutrophils (absolute)” value (Before) was 3.3 ± 0.4 ×10^3/μL. The “Neutrophils, %” value (Before) was 50.3 ± 3.3%, the Platelets (Before) was 209.0 ± 14^ ×10^3/μL and the RBC (Before) was 4.3 ± 0.2 ×10^6/µL. For the same compound, the RDW (Before) was 13.1 ± 0.2%, the WBC (Before) was 6.4 ± 0.4 ×10^3/μL and the “Basophils (absolute) % Change” value was −25.0%. For the same compound, the “Basophils, % - % Change” value was −25.0%, the “Eosinophils (absolute) % Change” value was −21.4% and the “Eosinophils, % - % Change” value was −15.0%. For the same compound, the “Hematocrit % Change” value was 1.2%, the “Hemoglobin % Change” value was 1.2% and the “Lymphocytes (absolute) % Change” value was −15.6%. For the same compound, the “Lymphocytes, % - % Change” value was −14.2%, the “MCH % Change” value was 0.3% and the “MCHC % Change” value was 0.1%. The “MCV % Change” value was 0.4%, the “Monocytes (absolute) % Change” value was 8.3% and the “Monocytes, % - % Change” value was 3.5%. For the same compound, the “Neutrophils (absolute) % Change” value was 14.5%, the “Neutrophils, % - % Change” value was 11.7% and the “Platelets % Change” value was −2.9%. For the same compound, the “RBC % Change” value was 1.0%, the “RDW % Change” value was 0.1% and the “WBC % Change” value was 0.3%.
With CC(C)(O)CC(=O)O [HMB-Acid Gel Swallow, 3-hydroxy-3-methylbutyric acid] the “Basophils (absolute)” value (After (180 min)) was 0.04 ± 0.02 ×10^3/μL, the “Basophils, %” value (After (180 min)) was 0.4 ± 0.2% and the “Eosinophils (absolute)” value (After (180 min)) was 0.1 ± 0.02 ×10^3/μL. For the same compound, the “Eosinophils, %” value (After (180 min)) was 2.4 ± 0.4%, the Hematocrit (After (180 min)) was 37.6 ± 1.5% and the Hemoglobin (After (180 min)) was 13.0 ± 0.5 g/dL. The “Lymphocytes (absolute)” value (After (180 min)) was 2.2 ± 0.1 ×10^3/μL, the “Lymphocytes, %” value (After (180 min)) was 37.4 ± 1.9% and the MCH (After (180 min)) was 31.4 ± 0.8 pg. The MCHC (After (180 min)) was 34.6 ± 0.3 g/dL, the MCV (After (180 min)) was 90.0 ± 1.5 fL and the “Monocytes (absolute)” value (After (180 min)) was 0.5 ± 0.04 ×10^3/μL. The “Monocytes, %” value (After (180 min)) was 7.0 ± 0.6%, the “Neutrophils (absolute)” value (After (180 min)) was 3.3 ± 0.2 ×10^3/μL and the “Neutrophils, %” value (After (180 min)) was 52.9 ± 2.2%. For the same compound, the Platelets (After (180 min)) was 202.4 ± 25. ×10^3/μL, the RBC (After (180 min)) was 4.2 ± 0.2 ×10^6/µL and the RDW (After (180 min)) was 13.2 ± 0.3%. For the same compound, the WBC (After (180 min)) was 6.1 ± 0.3 ×10^3/μL, the “Basophils (absolute)” value (Before) was 0.01 ± 0.01^a ×10^3/μL and the “Basophils, %” value (Before) was 0.1 ± 0.1^a %. For the same compound, the “Eosinophils (absolute)” value (Before) was 0.2 ± 0.04 ×10^3/μL, the “Eosinophils, %” value (Before) was 2.5 ± 0.3% and the Hematocrit (Before) was 37.6 ± 1.6%. The Hemoglobin (Before) was 13.1 ± 0.5 g/dL, the “Lymphocytes (absolute)” value (Before) was 3.1 ± 0.3 ×10^3/μL and the “Lymphocytes, %” value (Before) was 43.8 ± 2.8%. For the same compound, the MCH (Before) was 31.2 ± 0.7 pg, the MCHC (Before) was 34.7 ± 0.3 g/dL and the MCV (Before) was 90.1 ± 1.3 fL. For the same compound, the “Monocytes (absolute)” value (Before) was 0.5 ± 0.1 ×10^3/μL, the “Monocytes, %” value (Before) was 7.6 ± 0.7% and the “Neutrophils (absolute)” value (Before) was 3.0 ± 0.2 ×10^3/μL. The “Neutrophils, %” value (Before) was 46.0 ± 2.8%, the Platelets (Before) was 195.0 ± 31.5 ×10^3/μL and the RBC (Before) was 4.2 ± 0.2 ×10^6/µL. The RDW (Before) was 13.2 ± 0.2%, the WBC (Before) was 6.7 ± 0.5 ×10^3/μL and the “Basophils (absolute) % Change” value was 200.0%. For the same compound, the “Basophils, % - % Change” value was 200.0%, the “Eosinophils (absolute) % Change” value was −41.2% and the “Eosinophils, % - % Change” value was −5.0%. The “Hematocrit % Change” value was −0.1%, the “Hemoglobin % Change” value was −0.4% and the “Lymphocytes (absolute) % Change” value was −29.1%. For the same compound, the “Lymphocytes, % - % Change” value was −14.6%, the “MCH % Change” value was 0.7% and the “MCHC % Change” value was −0.3%. The “MCV % Change” value was −0.1%, the “Monocytes (absolute) % Change” value was −7.7% and the “Monocytes, % - % Change” value was −8.2%. The “Neutrophils (absolute) % Change” value was 10.9%, the “Neutrophils, % - % Change” value was 14.9% and the “Platelets % Change” value was 3.8%. For the same compound, the “RBC % Change” value was 0.1%, the “RDW % Change” value was 0.4% and the “WBC % Change” value was −10.2%. For the same compound, the “decrease in absolute lymphocyte numbers over the measurement period” value (p<0.04) was “significantly greater decrease”.
With CC(C)(O)CC(=O)O [HMB-Acid Gel Sublingual, 3-hydroxy-3-methylbutyric acid] the “Basophils (absolute)” value (After (180 min)) was 0.03 ± 0.02 ×10^3/μL, the “Basophils, %” value (After (180 min)) was 0.3 ± 0.2% and the “Eosinophils (absolute)” value (After (180 min)) was 0.1 ± 0.02 ×10^3/μL. For the same compound, the “Eosinophils, %” value (After (180 min)) was 1.8 ± 0.3%, the Hematocrit (After (180 min)) was 38.5 ± 1.7% and the Hemoglobin (After (180 min)) was 13.3 ± 0.6 g/dL. The “Lymphocytes (absolute)” value (After (180 min)) was 2.2 ± 0.2 ×10^3/μL, the “Lymphocytes, %” value (After (180 min)) was 35.5 ± 2.1% and the MCH (After (180 min)) was 31.0 ± 0.5 pg. For the same compound, the MCHC (After (180 min)) was 34.5 ± 0.2 g/dL, the MCV (After (180 min)) was 89.9 ± 1.7 fL and the “Monocytes (absolute)” value (After (180 min)) was 0.5 ± 0.05 ×10^3/μL. For the same compound, the “Monocytes, %” value (After (180 min)) was 7.1 ± 0.7%, the “Neutrophils (absolute)” value (After (180 min)) was 3.5 ± 0.3 ×10^3/μL and the “Neutrophils, %” value (After (180 min)) was 55.4 ± 2.9%. The Platelets (After (180 min)) was 213.9 ± 19.1 ×10^3/μL, the RBC (After (180 min)) was 4.3 ± 0.2 ×10^6/µL and the RDW (After (180 min)) was 13.3 ± 0.2%. For the same compound, the WBC (After (180 min)) was 6.3 ± 0.4 ×10^3/μL, the “Basophils (absolute)” value (Before) was 0.03 ± 0.02 ×10^3/μL and the “Basophils, %” value (Before) was 0.3 ± 0.2%. The “Eosinophils (absolute)” value (Before) was 0.2 ± 0.03 ×10^3/μL, the “Eosinophils, %” value (Before) was 2.4 ± 0.4% and the Hematocrit (Before) was 37.8 ± 1.6%. The Hemoglobin (Before) was 13.1 ± 0.6 g/dL, the “Lymphocytes (absolute)” value (Before) was 2.8 ± 0.2 ×10^3/μL and the “Lymphocytes, %” value (Before) was 43.0 ± 1.4%. For the same compound, the MCH (Before) was 31.0 ± 0.5 pg, the MCHC (Before) was 34.7 ± 0.2 g/dL and the MCV (Before) was 89.6 ± 1.6 fL. For the same compound, the “Monocytes (absolute)” value (Before) was 0.5 ± 0.1 ×10^3/μL, the “Monocytes, %” value (Before) was 7.0 ± 1.0% and the “Neutrophils (absolute)” value (Before) was 3.1 ± 0.3 ×10^3/μL. For the same compound, the “Neutrophils, %” value (Before) was 47.4 ± 2.2%, the Platelets (Before) was 221.3 ± 20.8 ×10^3/μL and the RBC (Before) was 4.2 ± 0.2 ×10^6/µL. The RDW (Before) was 13.2 ± 0.2%, the WBC (Before) was 6.6 ± 0.4 ×10^3/μL and the “Basophils (absolute) % Change” value was 0.0%. For the same compound, the “Basophils, % - % Change” value was 0.0%, the “Eosinophils (absolute) % Change” value was −28.6% and the “Eosinophils, % - % Change” value was −26.3%. For the same compound, the “Hematocrit % Change” value was 2.0%, the “Hemoglobin % Change” value was 1.4% and the “Lymphocytes (absolute) % Change” value was −22.1%. For the same compound, the “Lymphocytes, % - % Change” value was −17.4%, the “MCH % Change” value was 0.0% and the “MCHC % Change” value was −0.5%. The “MCV % Change” value was 0.3%, the “Monocytes (absolute) % Change” value was 0.0% and the “Monocytes, % - % Change” value was 1.8%. For the same compound, the “Neutrophils (absolute) % Change” value was 11.6%, the “Neutrophils, % - % Change” value was 16.9% and the “Platelets % Change” value was −3.3%. The “RBC % Change” value was 1.7%, the “RDW % Change” value was 0.9% and the “WBC % Change” value was −4.2%.
